Values quoted from earlier work as cited in patent publication US20080089861A1, “Combination therapy for treatment of demyelinating conditions” (priority 2006, published 2008).
“Also recorded” adds a separate entry of the source.

Settings: human

CC12CC3CC(C)(C1)CC(N)(C3)C2 [Memantine, 1-amino-3,5-dimethyladamantane]
Dose Dependent Tox: Dose escalation; also recorded: hallucination
